Measurements as given in patent US20080153792A1, “Drug Identification and Treatment Method” (priority 2006, published 2008).

Experiments:
[1] = tested on: CD1 male mice, carrageenan-λ induced pleurisy; experiment: carrageenan-λ induced lung (pleural cavity) inflammation in mice; type: in vivo, mouse; settings: 1 mg and 0.1 mg by oral gavage
[2] = tested on: human peripheral blood mononuclear cells (PBMC); experiment: human mixed lymphocyte reaction (MLR); type: cell-based; settings: either 300 nM or 30 nM; 6 days; p>0.05
Procedure: Human mixed lymphocyte reaction (MLR). The capacity of 3β,16α-dihydroxy-17-oxoandrostane, 3β,17β-dihydroxy-16-oxoandrostane, 17α-ethynylandrost-5-ene-3β,7β,17β-triol, and 17β-aminoandrost-5-ene-3β-ol to affect antigen specific stimulation in which human T lymphocytes respond to a specific foreign antigen (major histocompatibility complex).
Blood samples were obtained from 3 (2 males, […]) fasting, healthy human volunteers of 23-31 years old. […] The subjects were bled between […] to limit possible fluctuations in the circulating levels of hormones or cytokines that could have influenced the in vitro responses of their lymphocytes. Peripheral blood mononuclear cells (PBMC) were isolated by centrifugation on Ficoll-Hypaque (density 1.077, Biochrom AG, Berlin, Germany) gradients and resuspended in culture medium (RPMI 1640 supplemented with 2 mM L-glutamine, penicillin (100 U/mL) and streptomycin ([…]) (Invitrogen s.rl., Milan, Italy). Autologous (responder) inactivated plasma was used at 10%. Five hundred thousand responder PBMC (PBMCr) and 500,000 allogeneic irradiated (30 Gy) stimulator PBMC (PBMCs) were mixed at a ratio of 1:1 in 200 μL medium and cultured for 6 days in flat bottom 96 well plates (Nunc, Roskilde, Denmark) at a concentration of 300 nM or 30 nM for each of the 4 compounds. The compounds were dissolved in ethanol and then diluted to the desired concentration with culture medium leading to a final solution containing 0.01% of ethanol. This vehicle was used as control. Controls also included PBMCr and PBMCs cultured separately. During the last 8 hours of the culture period the PBMC were pulsed with 1 μCi/well [^3H] thymidine (Amersham, Milan, Italy). The cells were then harvested and radioactivity incorporation measured with a beta cell counter. The mean cpm of quadruplicate wells was calculated. Proliferation of T cells was expressed as a stimulation index: SI=cpm (PMBCs xPBMCr)/cpm (PBMCr)+cpm (PBMCs). Statistical analysis was performed using the Student's t test. The cpm obtained from quadruplicate of each test compound were compared to proliferative responses obtained in control PBMCr and PBMCs cultured in the presence of the vehicle. Differences were considered significant at p<0.05.

[3] = tested on: 8 week old db/db diabetic mice; experiment: hyperinsulinemic-euglycemic clamp in db/db mice; type: in vivo, mouse; settings: oral gavage 14 days; insulin 10 mU/kg/min
Procedure: Glucose lowering in 8 week old db/db diabetic mice. The hyperinsulinemic-euglycemic clamp protocol was conducted to measure insulin sensitivity in vivo. In this procedure, insulin was administered to raise the insulin concentration while glucose was infused to maintain euglycemia or a fixed, normal blood glucose level (about 180 mg/dL). […] The objective of this protocol was to investigate characterize the capacity of 17α-ethynylandrost-5-ene-3β,7β,17β-triol and androst-5-ene-3β,7β,16α,17β-tetrol to ameliorate systemic insulin resistance and improve whole body glucose disposal in the hyperinsulinemic-euglycemic clamp model. The degree of skeletal muscle and hepatic insulin sensitivity and tissue specific glucose uptake were also assessed. The animals were dosed daily by oral gavage for 14 days. On Day 10 of treatment catheters were implanted in the carotid artery and jugular vein. On the day of the clamp (day 14) the compound was administered at 7:30 am.
Body weight and glucose concentration were assessed on day 0, 7 and day 14 of treatment. On day 14 a euglycemic hyperinsulinemic clamp was performed. […] Plasma ^14C 2-deoxyglucose was assessed at 122, 125, 130, 135, 145 min. […]
Analysis was conducted as follows. Plasma samples were deproteinized with Ba(OH)2 (0.3 N) and ZnSO4 (0.3 N), dried and radioactivity was assessed on scintillation counter (Packard TRICARB 2900 TR, Meriden, Conn.). […] One supernatant was directly counted to determine radioactivity from both [14C] […] A second aliquot was treated with Ba(OH)2 and ZnSO4 to remove ^14C DGP and any tracer incorporated into glycogen and then counted to determine radioactivity from free [^14C]DG(2). [^14C]DGP was calculated as the difference between the two aliquots. […] Rg, an index of tissue specific glucose uptake was calculated as previously described (E. W. Kraegen et al., Am. J. Physiol., 248:E353-E362, 1985). Whole body glucose turnover was calculated as the ratio of the ^3H glucose infusion rate (dpm/kg/min) and arterial plasma glucose specific activity (dpm/mg). […]

[4] = tested on: osteoblasts and osteocytes in murine vertebral bone; experiment: osteoblast and osteocyte apoptosis in ovariectomized mice (TUNEL); type: in vivo, mouse; settings: ovariectomized Swiss Webster mice
Description: The degree of apoptosis of osteoblasts and osteocytes in murine vertebral bone as a function of estrogen deficiency was examined. Swiss Webster mice (four months old) were ovariectomized. Twenty-eight days later, the animals were sacrificed, vertebrae were isolated, fixed and embedded, and then undecalcified in methacrylate.

Structure (SMILES): C#C[C@]1(O)CC[C@H]2[C@@H]3[C@@H](O)C=C4C[C@@H](O)CC[C@]4(C)[C@H]3CC[C@@]21C [17α-ethynylandrost-5-ene-3β,7β,17β-triol]
- anti-inflammation activity versus vehicle controls [1]: statistically significant anti-inflammation activity
- immune suppression in the MLR [2]: not appreciably immune suppressive
- glucose infusion rate compared to the vehicle control [3]: increased the glucose infusion rate
- osteoblast and osteocyte apoptosis [4]: reduce apoptosis
